Experiments:
DNA-PK [1] = assay: DNA-PK phosphorylation in HepG2 cells with or without insulin; assay type: cell-based; conditions: insulin-treated HepG2 cells vs noninsulin-treated cells
Method: (§1) C57BL/6J male mice (Jackson laboratory) were used at 7 wks of age unless specified. For fasting/feeding experiments, mice were fasted for 40 hrs and then fed a high carbohydrate, fat-free diet for indicated time periods. HepG2 cells were grown in DMEM supplemented with 10% fetal bovine serum and 100 units/ml penicillin/streptomycin. M059J and M059K were from ATCC and grown in the same medium containing 4 mg/ml glutamine. HepG2 cells were maintained in serum free media overnight prior to insulin treatment. For insulin treatment, HepG2 cells were treated with 100 nM insulin or DMSO for 30 min. 293FT cells in DMEM supplemented with 10% fetal bovine serum and 100 units/ml penicillin/streptomycin/neomycin or 293F cells in 293 Freestyle medium were transfected with expression constructs or siRNA (Santa Cruz) using lipofectamine 2000 (Invitrogen) or 293 Fectin (Invitrogen), respectively. 293 cells were treated with either control DMSO or OA at 1 uM and Taut at indicated concentrations for 2 hrs. Expression vectors for DNA-PK and mutants, HAT, HDAC9, PP1, Kus and −0.7 p53-Luc were from laboratories of Drs. […]
DNA-PK activity is known to be regulated by phosphorylation/dephosphorylation, independent of its activation by DNA. […] DNA-PK phosphorylation was detected using phosphoserine/threonine antibodies that detect autophosphorylation at the S/TQ motifs of DNA-PK.

PP1 = PP1 in nuclear extracts of HepG2 cells; assay type: cell-based; conditions: insulin treatment vs control
Method: as §1, with “hrs.” for “hrs. Expression vectors for DNA-PK and mutants, HAT, HDAC9, PP1, Kus and −0.7 p53-Luc were from laboratories of Drs.”
(§2) Therefore, Applicants tested the S262 phosphorylation status of USF-1 upon treatment with okadaic acid (OA), which is known to prevent dephosphorylation of DNA-PK (Douglas et al., 2001). […] Similarly, PP1 was not detected in nuclear extracts from control HepG2 cells but was increased upon insulin treatment (FIG. 3H, right panel). […]

USF-1 [2] = assay: USF-1 modifications in M059J cells lacking DNA-PKcs; assay type: cell-based, human; conditions: insulin 100 nM 30 min
Method: as §1, with “Drs. Meek, Kouzarides, Zelent, Lamond, Shay and Oren respectively. siRNA for knockdown of DNA-PK is commercially available at Santa Cruz Biotechnology Inc.” for “Drs.”

USF-1 [3] = assay: USF-1 S262 phosphorylation/K237 acetylation in HepG2 cells with or without insulin; assay type: cell-based; conditions: HepG2, control siRNA-transfected cells, insulin 100 nM 30 min
Method: as §1, with “Drs. Meek, Kouzarides, Zelent, Lamond, Shay and Oren respectively. siRNA for knockdown of DNA-PK is commercially available at Santa Cruz Biotechnology Inc.” for “Drs.”

USF-1 [4] = assay: USF-1 modifications in M059K cells containing WT DNA-PK; assay type: cell-based, human; conditions: insulin 100 nM 30 min
Method: as §1, with “Drs. Meek, Kouzarides, Zelent, Lamond, Shay and Oren respectively. siRNA for knockdown of DNA-PK is commercially available at Santa Cruz Biotechnology Inc.” for “Drs.”

USF-1 [5] = assay: S262 phosphorylation of USF-1 in 293 cells (IP and western blotting); assay type: cell-based; conditions: 2 hrs
Method: as §1, with “Drs. Meek, Kouzarides, Zelent, Lamond, Shay and Oren respectively. siRNA for knockdown of DNA-PK is commercially available at Santa Cruz Biotechnology Inc.” for “Drs.”
Next S262 phosphorylation of USF-1 by DNA-PK in cultured cells was tested. […] Applicants detected higher S262 phosphorylation of USF-1 immunoprecipitated from cells overexpressing WT DNA-PK (FIG. 3B, left panel, lane 2), but not from cells expressing DNA-PK with T3950D mutation (FIG. 3B, lane 3) or control cells (FIG. 3B, lane 1). Furthermore, Applicants detected even higher S262 phosphorylation of USF-1 from cells expressing DNAPK with T3950A mutation compared to WT DNA-PK-expressing cells (FIG. 3B, middle panel, lane 3). […] WT USF-1, but not USF-1 containing S262A mutation, was detected to have higher phosphorylation upon cotransfection with DNA-PK (FIG. 3B, right panel, lanes 2 and 3). […]

DNA-PK [6] = assay: DNA-PK phosphorylation in treated 293 cells (western blotting); assay type: cell-based; conditions: 2 hrs
Method: as §1, with “hrs.” for “hrs. Expression vectors for DNA-PK and mutants, HAT, HDAC9, PP1, Kus and −0.7 p53-Luc were from laboratories of Drs.”
as §2

USF-1 [7] = assay: USF-1 interaction (IP) and recruitment of proteins to the FAS promoter (ChIP) in 293 cells; assay type: cell-based; conditions: Taut at indicated concentrations for 2 hrs
Method: as §1
Livers from fasted or fed mice were fixed with DSG at 2 mM for 45 min at RT before formaldehyde cross-linking Soluble chromatin was quantified by absorbance at 260 nm, and equivalent amounts of input DNA were immunoprecipitated. […]

USF-1 [8] = assay: K237 acetylation of USF-1 in cells (IP and western blotting); assay type: cell-based; conditions: OA-treated cells vs control cells
Method: as §1, with “respectively.” for “respectively. 293 cells were treated with either control DMSO or OA at 1 uM and Taut at indicated concentrations for 2 hrs. Expression vectors for DNA-PK and mutants, HAT, HDAC9, PP1, Kus and −0.7 p53-Luc were from laboratories of Drs.”
Since USF-1 is both phosphorylated and acetylated at nearby sites and these posttranslational modifications are critical for USF-1 function in FAS promoter activation, we tested whether an increase in S262 phosphorylation of USF-1 could affect K237 acetylation. […] Conversely, we detected a significant level of K237 acetylation of USF-1 in control cells, which was reduced in OA-treated cells (FIG. 5B, left panel, lane 2). […]

insulin
DNA-PK phosphorylation (DNA-PK [1]): not detectable | PP1 in nuclear extracts (PP1): increased | USF modifications (S262 phosphorylation, K237 acetylation) (USF-1 [2]): did not result in any significant increase | K237 acetylation of USF-1 (USF-1 [3]): markedly increased | S262 phosphorylation of USF-1 (USF-1 [3]): markedly increased | K237 acetylation of USF-1 (USF-1 [4]): increased | S262 phosphorylation of USF-1 (USF-1 [4]): increased

CO[C@H]([C@H](O)CC(=O)[C@@H](C)[C@@H](O)CC[C@@H](C)[C@@H]1O[C@]2(CC[C@@H](C)[C@H](CC[C@H](C)C(C)=O)O2)CC[C@@H]1C)[C@H](OC(=O)C[C@@H](O)C1=C(C)C(=O)OC1=O)C(C)C [Taut, tautomycin]
S262 phosphorylation of USF-1 (USF-1 [5]; Taut 10 nM): decreased | S262 phosphorylation of USF-1 (USF-1 [5]; Taut 1 uM): hardly detectable | phosphorylated DNA-PK (DNA-PK [6]; Taut 1 uM, vs control cells): easily detected | USF-1 interaction and recruitment of various proteins (USF-1 [7]): abolished

C=C1[C@@H](O)[C@@H]2O[C@]3(CC[C@H](/C=C/[C@@H](C)[C@@H]4CC(C)=C[C@@]5(O[C@H](C[C@@](C)(O)C(=O)O)CC[C@H]5O)O4)O3)CC[C@H]2O[C@@H]1[C@@H](O)C[C@H](C)[C@H]1O[C@@]2(CCCCO2)CC[C@H]1C [OA, okadaic acid]
K237 acetylation of USF-1 (USF-1 [8]): reduced | S262 phosphorylation of USF-1 (USF-1 [5]; OA 1 uM, vs control DMSO): hardly detectable | phosphorylation of DNA-PK (DNA-PK [6]; OA 1 uM, vs control DMSO): greatly increased
